Results on five compounds are retold here after patent US10168342B2, “Lipid probes and uses thereof” (THE SCRIPPS RESEARCH INSTITUTE, priority 2015, dated 2019).

SMILES strings stand for the structures. Read-outs that look alike come from different tables or passages of the source.

In test [1] the target is T1, AEA-DA lipid probe targets in Neuro2a cells (Mus musculus, UniProt P48678).
T1 sequence (P48678 1-665): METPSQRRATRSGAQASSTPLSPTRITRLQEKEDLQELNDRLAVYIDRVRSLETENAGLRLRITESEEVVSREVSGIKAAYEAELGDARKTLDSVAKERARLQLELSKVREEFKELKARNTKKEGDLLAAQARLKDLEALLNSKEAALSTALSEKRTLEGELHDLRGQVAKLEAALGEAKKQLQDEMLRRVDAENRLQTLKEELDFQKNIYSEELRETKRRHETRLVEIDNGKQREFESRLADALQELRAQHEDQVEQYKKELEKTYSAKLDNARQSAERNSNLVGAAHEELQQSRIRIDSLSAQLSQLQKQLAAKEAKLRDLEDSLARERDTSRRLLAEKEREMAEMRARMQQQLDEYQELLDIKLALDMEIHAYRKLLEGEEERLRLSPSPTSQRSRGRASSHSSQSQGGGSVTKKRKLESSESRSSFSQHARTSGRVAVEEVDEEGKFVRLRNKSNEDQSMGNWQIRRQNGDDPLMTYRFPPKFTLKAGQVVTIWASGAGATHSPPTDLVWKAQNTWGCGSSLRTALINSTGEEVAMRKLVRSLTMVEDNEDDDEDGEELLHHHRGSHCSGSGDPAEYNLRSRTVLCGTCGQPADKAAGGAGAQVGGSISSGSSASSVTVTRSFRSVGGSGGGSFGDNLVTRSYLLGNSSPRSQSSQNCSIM

Test [2] has as its target AEA-DA lipid probe targets in Neuro2a cells (Mus musculus, UniProt P60229).
For test [3], the target named is T2, AEA-DA lipid probe targets in Neuro2a cells (Mus musculus, UniProt Q61595).
T2 sequence (Q61595 1-1327): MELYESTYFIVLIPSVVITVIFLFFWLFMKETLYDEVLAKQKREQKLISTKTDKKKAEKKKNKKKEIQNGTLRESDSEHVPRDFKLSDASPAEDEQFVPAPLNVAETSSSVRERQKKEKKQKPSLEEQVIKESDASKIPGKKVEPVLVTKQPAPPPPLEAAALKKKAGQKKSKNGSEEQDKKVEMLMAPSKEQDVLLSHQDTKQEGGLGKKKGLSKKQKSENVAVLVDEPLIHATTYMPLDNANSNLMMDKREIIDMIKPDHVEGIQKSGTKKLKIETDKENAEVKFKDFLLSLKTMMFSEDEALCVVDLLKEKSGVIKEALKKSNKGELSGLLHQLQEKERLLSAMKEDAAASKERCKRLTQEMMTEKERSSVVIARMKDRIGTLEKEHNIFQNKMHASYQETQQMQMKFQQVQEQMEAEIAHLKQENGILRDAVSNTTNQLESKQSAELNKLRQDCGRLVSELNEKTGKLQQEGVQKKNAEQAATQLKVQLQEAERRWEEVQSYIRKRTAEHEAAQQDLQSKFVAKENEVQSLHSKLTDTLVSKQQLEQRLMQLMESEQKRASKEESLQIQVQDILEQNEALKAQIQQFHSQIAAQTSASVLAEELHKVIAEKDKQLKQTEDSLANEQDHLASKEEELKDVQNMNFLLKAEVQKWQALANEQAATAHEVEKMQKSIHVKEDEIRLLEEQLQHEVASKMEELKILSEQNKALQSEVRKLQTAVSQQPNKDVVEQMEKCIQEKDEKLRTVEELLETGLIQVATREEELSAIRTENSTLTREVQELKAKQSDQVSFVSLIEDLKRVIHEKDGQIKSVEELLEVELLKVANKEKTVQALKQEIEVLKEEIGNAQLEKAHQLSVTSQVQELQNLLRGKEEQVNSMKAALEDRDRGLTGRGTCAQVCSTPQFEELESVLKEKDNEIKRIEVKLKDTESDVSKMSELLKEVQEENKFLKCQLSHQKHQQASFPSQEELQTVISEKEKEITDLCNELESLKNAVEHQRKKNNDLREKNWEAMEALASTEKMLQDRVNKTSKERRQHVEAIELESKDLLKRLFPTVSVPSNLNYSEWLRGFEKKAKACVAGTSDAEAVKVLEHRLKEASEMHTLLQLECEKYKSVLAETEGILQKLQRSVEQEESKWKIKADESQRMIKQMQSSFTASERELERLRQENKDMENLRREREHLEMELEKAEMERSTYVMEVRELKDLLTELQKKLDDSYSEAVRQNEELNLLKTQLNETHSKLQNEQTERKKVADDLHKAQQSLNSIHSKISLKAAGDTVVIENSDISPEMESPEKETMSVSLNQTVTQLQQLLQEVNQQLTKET

Test [4] has as its target AEA-DA lipid probe targets in Neuro2a cells (Mus musculus, UniProt Q8VDD5).
The target of test [5] is AEA-DA lipid probe targets in Neuro2a cells (Mus musculus, UniProt Q9D8N0).
AEA-DA lipid probe targets in Neuro2a cells (Mus musculus, UniProt Q9D8N0), sequence (Q9D8N0 whole entry): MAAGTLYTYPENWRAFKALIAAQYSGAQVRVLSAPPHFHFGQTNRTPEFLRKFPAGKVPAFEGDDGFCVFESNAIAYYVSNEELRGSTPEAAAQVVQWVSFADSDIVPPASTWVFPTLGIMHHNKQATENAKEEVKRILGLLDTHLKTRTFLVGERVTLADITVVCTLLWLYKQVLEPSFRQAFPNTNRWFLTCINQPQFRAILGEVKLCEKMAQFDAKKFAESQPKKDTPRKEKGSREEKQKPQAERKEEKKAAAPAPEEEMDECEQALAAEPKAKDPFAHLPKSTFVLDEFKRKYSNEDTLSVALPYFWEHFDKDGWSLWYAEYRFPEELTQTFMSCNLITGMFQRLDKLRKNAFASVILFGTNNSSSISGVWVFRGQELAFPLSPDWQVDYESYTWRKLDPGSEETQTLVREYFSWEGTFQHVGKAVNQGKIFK

AEA-DA lipid probe targets in Neuro2a cells (Mus musculus, UniProt Q8VDD5), sequence (Q8VDD5 whole entry): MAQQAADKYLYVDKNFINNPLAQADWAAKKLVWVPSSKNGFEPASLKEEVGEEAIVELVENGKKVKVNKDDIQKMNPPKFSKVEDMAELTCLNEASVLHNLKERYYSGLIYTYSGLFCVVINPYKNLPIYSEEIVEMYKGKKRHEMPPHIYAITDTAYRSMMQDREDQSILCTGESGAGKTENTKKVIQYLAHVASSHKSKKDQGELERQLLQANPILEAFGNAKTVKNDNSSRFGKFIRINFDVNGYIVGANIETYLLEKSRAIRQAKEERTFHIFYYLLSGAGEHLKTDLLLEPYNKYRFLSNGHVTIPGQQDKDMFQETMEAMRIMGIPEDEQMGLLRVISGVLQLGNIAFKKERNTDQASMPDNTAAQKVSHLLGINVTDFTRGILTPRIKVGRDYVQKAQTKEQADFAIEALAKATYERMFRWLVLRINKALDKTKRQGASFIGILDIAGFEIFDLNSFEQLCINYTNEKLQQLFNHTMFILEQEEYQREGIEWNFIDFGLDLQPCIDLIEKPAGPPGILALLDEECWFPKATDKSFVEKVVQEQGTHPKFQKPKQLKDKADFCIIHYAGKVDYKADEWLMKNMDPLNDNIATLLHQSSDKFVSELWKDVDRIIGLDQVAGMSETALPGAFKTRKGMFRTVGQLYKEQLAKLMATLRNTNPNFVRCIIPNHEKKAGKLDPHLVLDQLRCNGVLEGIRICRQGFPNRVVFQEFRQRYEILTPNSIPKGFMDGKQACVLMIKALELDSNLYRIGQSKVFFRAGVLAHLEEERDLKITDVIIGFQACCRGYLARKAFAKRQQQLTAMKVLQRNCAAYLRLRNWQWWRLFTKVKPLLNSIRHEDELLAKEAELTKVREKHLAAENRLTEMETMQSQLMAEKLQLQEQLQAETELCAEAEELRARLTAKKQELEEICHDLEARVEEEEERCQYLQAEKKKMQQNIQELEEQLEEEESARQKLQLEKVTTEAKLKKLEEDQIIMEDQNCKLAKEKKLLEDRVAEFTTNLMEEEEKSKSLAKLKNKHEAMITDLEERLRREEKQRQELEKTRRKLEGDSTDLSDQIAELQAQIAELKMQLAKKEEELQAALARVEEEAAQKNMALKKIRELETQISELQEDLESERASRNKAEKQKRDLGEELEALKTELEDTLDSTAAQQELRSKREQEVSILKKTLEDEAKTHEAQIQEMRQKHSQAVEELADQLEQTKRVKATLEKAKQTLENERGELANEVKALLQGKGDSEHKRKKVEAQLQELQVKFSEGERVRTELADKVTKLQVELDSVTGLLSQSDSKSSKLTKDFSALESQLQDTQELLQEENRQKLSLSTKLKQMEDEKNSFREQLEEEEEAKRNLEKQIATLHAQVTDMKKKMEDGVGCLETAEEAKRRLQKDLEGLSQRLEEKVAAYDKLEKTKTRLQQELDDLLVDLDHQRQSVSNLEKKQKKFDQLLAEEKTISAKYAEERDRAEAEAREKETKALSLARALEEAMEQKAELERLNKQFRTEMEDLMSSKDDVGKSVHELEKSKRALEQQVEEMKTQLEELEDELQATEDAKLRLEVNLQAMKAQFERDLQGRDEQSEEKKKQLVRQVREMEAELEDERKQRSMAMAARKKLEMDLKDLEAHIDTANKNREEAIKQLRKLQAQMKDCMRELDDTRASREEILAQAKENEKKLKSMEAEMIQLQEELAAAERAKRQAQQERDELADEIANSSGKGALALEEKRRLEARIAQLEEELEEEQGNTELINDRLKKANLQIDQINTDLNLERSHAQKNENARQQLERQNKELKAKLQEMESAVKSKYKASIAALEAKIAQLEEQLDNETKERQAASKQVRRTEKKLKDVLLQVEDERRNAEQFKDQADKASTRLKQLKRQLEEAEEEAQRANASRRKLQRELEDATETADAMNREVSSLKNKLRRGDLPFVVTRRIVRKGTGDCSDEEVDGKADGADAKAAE
AEA-DA lipid probe targets in Neuro2a cells (Mus musculus, UniProt P60229), sequence (P60229 whole entry): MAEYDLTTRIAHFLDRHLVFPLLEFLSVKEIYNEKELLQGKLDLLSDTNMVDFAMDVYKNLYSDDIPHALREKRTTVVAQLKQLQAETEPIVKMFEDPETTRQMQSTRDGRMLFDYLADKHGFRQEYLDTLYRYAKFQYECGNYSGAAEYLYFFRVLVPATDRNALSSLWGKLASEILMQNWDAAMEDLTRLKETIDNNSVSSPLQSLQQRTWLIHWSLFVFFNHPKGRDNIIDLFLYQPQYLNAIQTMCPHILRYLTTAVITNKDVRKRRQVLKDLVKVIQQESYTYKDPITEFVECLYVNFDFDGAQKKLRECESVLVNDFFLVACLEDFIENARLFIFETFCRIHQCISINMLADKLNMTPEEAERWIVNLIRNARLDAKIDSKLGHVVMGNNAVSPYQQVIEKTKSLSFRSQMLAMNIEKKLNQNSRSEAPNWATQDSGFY

With `C=CCN(C)CCCCCCOc1ccc(C(=O)c2ccc(Br)cc2)c(F)c1` [Ro 48-8071, reference compound], the “SILAC ratio Lmna” value in test [1] (competitor 25 μM) is given as 1.1. Also, the “SILAC ratio Eif3e” value in test [2] (competitor 25 μM) is reported as 0.8. Also, in test [3] (competitor 25 μM), the “SILAC ratio, Ktn1” value is reported as 0.8. The “SILAC ratio Myh9” value in test [4] (competitor 25 μM) is on record as 1.0. Moreover, in test [5] (competitor 25 μM), the “SILAC ratio Eef1g” value is 0.9.

Take `CN1CCN(C(=O)c2[nH]c3ccc([N+](=O)[O-])cc3c2-c2ccccc2)CC1` [MJN228, (4-Methylpiperazin-1-yl)(5-nitro-3-phenyl-1H-indol-2-yl)methanone]: the “SILAC ratio Lmna” value in test [1] (competitor 10 μM) came to 1.3; in test [1] (competitor 25 μM) it was 1.1; in test [1] (competitor 50 μM), 1.3; in test [1] (competitor 100 μM), 1.5. Further, the “SILAC ratio Eif3e” value in test [2] (competitor 10 μM) was determined as 1.1; in test [2] (competitor 25 μM), 1.1; in test [2] (competitor 50 μM), 1.0; in test [2] (competitor 100 μM), 1.0. For the same compound, the “SILAC ratio, Ktn1” value in test [3] (competitor 10 μM) is listed as 1.0; in test [3] (competitor 25 μM), 1.4; in test [3] (competitor 100 μM), 1.2. Besides, the “SILAC ratio Myh9” value in test [4] (competitor 10 μM) was 1.2; in test [4] (competitor 25 μM), 1.3; in test [4] (competitor 50 μM), 1.2; in test [4] (competitor 100 μM) it was 1.6. In addition, the “SILAC ratio Eef1g” value in test [5] (competitor 10 μM) was 1.1; in test [5] (competitor 25 μM), 1.1; in test [5] (competitor 50 μM), 1.0; in test [5] (competitor 100 μM), 1.3.

As for `CCCCC/C=C\C/C=C\C/C=C\C/C=C\CCCC(=O)NCCO` [AEA, anandamide, reference compound], the “SILAC ratio Lmna” value in test [1] (competitor 200 μM) amounted to 1.1. Further, in test [2] (competitor 200 μM), the “SILAC ratio Eif3e” value is recorded as 1.2. Besides, the “SILAC ratio, Ktn1” value in test [3] (competitor 200 μM) came to 1.4. Also, in test [4] (competitor 200 μM), the “SILAC ratio Myh9” value is reported as 1.1. Also, the “SILAC ratio Eef1g” value in test [5] (competitor 200 μM) came to 1.4.

Consider `CN1CCN(C(=O)c2c(-c3ccccc3)c3cc([N+](=O)[O-])ccc3n2C)CC1` [KML110, (1-Methyl-5-nitro-3-phenyl-1H-indol-2-yl)(4-methylpiperazin-1-yl)methanone], for which the “SILAC ratio Lmna” value in test [1] (competitor 25 μM) came to 1.3. Moreover, in test [2] (competitor 25 μM), the “SILAC ratio Eif3e” value stood at 1.4. The “SILAC ratio Myh9” value in test [4] (competitor 25 μM) came to 1.7. Also, in test [5] (competitor 25 μM), the “SILAC ratio Eef1g” value was 1.4.

Consider `O=C(/C=C/c1cccnc1)NCCCCC1CCN(C(=O)c2ccccc2)CC1` [FK-866, reference compound], for which the “SILAC ratio Lmna” value in test [1] (competitor 25 μM) was 1.2. Further, in test [2] (competitor 25 μM), the “SILAC ratio Eif3e” value is listed as 1.1. Also, the “SILAC ratio, Ktn1” value in test [3] (competitor 25 μM) is 1.2. The “SILAC ratio Myh9” value in test [4] (competitor 25 μM) came out at 1.2. Moreover, the “SILAC ratio Eef1g” value in test [5] (competitor 25 μM) is reported as 1.5.
